According to US9834549B2, “3,3-disubstituted-(8-aza-bicyclo[3.2.1]OCT-8-yl)-[5-(1H-pyrazol-4-yl)-thiophen-3-yl]-methanones as inhibitors of 11 (β)-HSD1” (The University Of Edinburgh, priority 2010, dated 2017):

Target: T1, human 11β-HSD2 (Homo sapiens, UniProt P80365)
T1 construct: CHO cells stably transfected with the full-length gene coding for human 11β-HSD2 were used; expressed in transfected cells; host or cells: CHO (stably transfected)
T1 sequence (P80365 1-405): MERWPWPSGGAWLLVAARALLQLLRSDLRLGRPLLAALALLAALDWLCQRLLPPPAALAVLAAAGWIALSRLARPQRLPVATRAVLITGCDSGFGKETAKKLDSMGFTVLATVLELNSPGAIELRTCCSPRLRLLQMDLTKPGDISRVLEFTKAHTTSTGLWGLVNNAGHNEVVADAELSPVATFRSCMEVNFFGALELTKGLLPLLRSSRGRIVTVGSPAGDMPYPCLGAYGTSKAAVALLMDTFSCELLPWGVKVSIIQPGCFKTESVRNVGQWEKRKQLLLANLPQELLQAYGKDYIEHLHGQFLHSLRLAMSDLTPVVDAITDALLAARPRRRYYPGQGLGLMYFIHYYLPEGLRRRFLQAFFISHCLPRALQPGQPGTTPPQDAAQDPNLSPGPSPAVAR
Experiment: Cellular in vitro 11β-HSD2 enzyme inhibition assay (CHO cells)
Type: cell-based
Settings: CHO cells transfected with human 11β-HSD2
Experimental: For measurement of inhibition of 11β-HSD2, CHO cells stably transfected with the full-length gene coding for human 11β-HSD2 were used. Assays were carried out in 96-well microplates containing 1×10^5 cells/well. Controls and compounds were plated as above, so that the final DMSO concentration in each well was 1%. To initiate the assay, 90 μL of a solution of HAMS F-12 medium containing 1% glutamine, 1% penicillin and streptomycin, and 22 nM tritiated cortisol was added to each well of the assay plate. The plate was then incubated in 5% CO2, 95% O2 at 37° C. for 16 hours.
The assay solutions were transferred to glass tubes and […] added to each tube. Each tube was vortexed thoroughly and the upper layer containing the tritiated steroid transferred to a fresh glass tube. The solvent was evaporated by placing the tubes in a heating block at 65° C. under a stream of nitrogen gas. 20 μL ethanol was added to each of the dried samples and vortexed briefly. Each sample was applied to a silica TLC plate and the plate dried. The plate was placed vertically in a glass tank containing 92% chloroform: 8% ethanol and the solvent allowed to rise up the plate. The plate was dried, placed in an imaging cassette, and overlayed with a tritium imaging plate for 1-2 days. The amount of enzyme inhibition in each sample was determined by measuring the intensity of the substrate and product spots using a phospho-imager. IC50 values for inhibitors were determined as described above for 11β-HSD1.

| Structure (SMILES) | IC50 |
| --- | --- |
| O=C(c1csc(-c2cn[nH]c2)c1)N1C2CCC1CC(O)(c1ncccn1)C2 (centres unmarked) [XX-20, (3-Hydroxy-3-pyrimidin-2-yl-8-aza-bicyclo[3.2.1]oct-8-yl)-[5-(1H-pyrazol-4-yl)-thiophen-3-yl]-methanone] | > 10 µM |
| O=C(c1csc(-c2cn[nH]c2)c1)N1C2CCC1CC(O)(c1nccs1)C2 (centres unmarked) [XX-29] | > 10 µM |
